Read-outs that look alike come from different tables or passages of the source.

The target of this experiment is CB1R (Homo sapiens, UniProt P21554). Put plainly: cell-based. The class given is binding.
Chain of CB1R (P21554 whole entry): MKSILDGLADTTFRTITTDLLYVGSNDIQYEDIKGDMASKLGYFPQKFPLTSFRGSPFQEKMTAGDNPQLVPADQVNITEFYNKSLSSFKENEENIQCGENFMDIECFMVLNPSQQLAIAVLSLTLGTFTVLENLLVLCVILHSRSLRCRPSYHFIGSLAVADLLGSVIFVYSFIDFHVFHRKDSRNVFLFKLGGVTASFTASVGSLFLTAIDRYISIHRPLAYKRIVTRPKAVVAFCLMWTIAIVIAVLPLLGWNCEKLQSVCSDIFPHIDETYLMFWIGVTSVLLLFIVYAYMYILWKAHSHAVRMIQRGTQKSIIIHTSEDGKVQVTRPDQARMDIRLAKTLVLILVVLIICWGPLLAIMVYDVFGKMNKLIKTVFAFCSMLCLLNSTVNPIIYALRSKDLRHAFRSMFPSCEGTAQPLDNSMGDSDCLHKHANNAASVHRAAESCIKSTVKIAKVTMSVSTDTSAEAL

Usually Ki stands for the dissociation constant of the complex between target and ligand, obtained from inhibition or displacement. Molecule `N#Cc1c(Oc2cccc(OS(=O)(=O)CCCC(F)(F)F)c2)cccc1C(F)(F)F` [Compound 29, 3-[2-cyano-3-(trifluoromethyl)phenoxy]phenyl-4,4,4-trifluoro-1-butanesulfonate] came in with a Ki of 18.1 nM.

As for AM-1248 [Compound 10], for the setting “read-out: Ki (nM), binding affinity for CB1R, competition with 3 nM [3H]-SR141716A, 6 h at 4°C, Ki=IC50/(1+[D]/Kd)”, the Ki is 104 nM.
